The values that follow come from PMC8911181, “A Novel CDK4/6 and PARP Dual Inhibitor ZC-22 Effectively Suppresses Tumor Growth and Improves the Response to Cisplatin Treatment in Breast and Ovarian Cancer” (International Journal of Molecular Sciences, 2022).

The test system of one experiment is SUM-159 cells. The experiment in a line: Cell viability assay (CCK-8), IC50. Type of experiment: cell-based. The conditions noted are these: Homo sapiens, SUM159, 6 days, medium replenished every 2 days. The method, then: (§1) Human breast cancer cell lines MDA-MB-231 and SUM-159, and human ovarian cancer cell lines OVCAR5 and SKOV3 were obtained from the American Type Culture Collection (ATCC). MDA-MB-231 cells were cultured in L-15 medium with 10% fetal bovine serum (FBS), incubated at 37 °C in a humidified incubator without additional CO2. SUM-159 cells were maintained in Dulbecco’s modified Eagle’s medium (DMEM) containing 10% FBS, and OVCAR5 and SKOV3 cells were incubated in Roswell Park Memorial Institute (RPMI)-1640 medium with 10% FBS and cultured at 37 °C in a humidified incubator containing 5% CO2.
(§2) Cell viability assay was performed as described before. Briefly, 2500/well of breast or ovarian cancer cells were seeded into a 96-well plate; grown overnight; treated with indicated concentration of Olaparib, LY2835219, ZC22, LP-1, GC-24, or cisplatin alone or together for an indicated amount of time; and then incubated with Cell Counting kit-8 (CCK-8) substrate (Dojindo, Kumamoto, Kyushu Island, Japan) for 1–2 h at 37 °C. Cell viability was calculated by the absorbance at 450 nm measured by the GloMax Explorer (Promega, Madison, WI, USA). Cells without treatment were set as 100%, and medium control (no cells) was set as 0%.
(§3) Figure 1 Synthesis strategy and activity assay of the novel compounds targeting both PARP and CDK4/6. (A) Synthesis strategy of the three novel compounds GC-24, LP-1, and ZC-22. (B) IC50 of GC-24, LP-1, and ZC-22 in breast and ovarian cancer cells. Cells were treated with increasing concentrations of GC-24, LP 1, or ZC-22 for 6 days with replenishment of medium every 2 days. Cell proliferation was analyzed by CCK-8 assays. (C) The reagents and conditions used for the chemical synthesis of ZC-22 in this study: (a) Pd(AcO)2, BINAP, CS2CO3, 1,4-Dioxane, 100 °C, 12 h; (b) CF3COOH, DCM, Room temperature, 6 h; (c) HOBt, EDCI, DIPEA, DMF, Room temperature, 12 h. TEXT PRINTED IN THE PICTURE: (B) LP-1: MDA-MB-231 IC50 (μM): >50; SUM-159 IC50 (μM): 7.780; OVCAR5 IC50 (μM): 10.11; SKOV3 IC50 (μM): 10.16 | (B) GC-24: MDA-MB-231 IC50 (μM): 33.77; SUM-159 IC50 (μM): 17.77; OVCAR5 IC50 (μM): 26.08; SKOV3 IC50 (μM): >50 | (B) ZC-22: MDA-MB-231 IC50 (μM): 3.608; SUM-159 IC50 (μM): 0.435; OVCAR5 IC50 (μM): 0.758; SKOV3 IC50 (μM): 0.542
(§4) Figure 2 ZC-22 suppresses proliferation of breast and ovarian cancer cells. (A) IC50 of ZC-22, Olaparib, and LY2835219 (Abemaciclib) in breast and ovarian cancer cells. Cells were treated with increasing concentrations of ZC-22, Olaparib, or LY2835219 for 6 days with replenishment of medium every 2 days. Cell proliferation was analyzed by CCK-8 assays. (B) Cell proliferation assay of breast and ovarian cancer cells with indicated treatment. MDA-MB-231 cells were treated with 2 μM Olaparib (OLA) or LY2835219 (LY-2) alone or together (OLA + LY-2) or with ZC-22 alone for 48 or 72 h. SUM-159, OVCAR5, and SKOV3 cells were treated with 0.5 μM OLA or LY-2 alone or together or with ZC-22 alone. Cell proliferation assay was analyzed by CCK-8 assays. Values are means ± SD, n = 3. ns, not significant, * p < 0.05, ** p < 0.01 and *** p < 0.001 for comparisons with the DMSO-treated group using an unpaired t-test. TEXT PRINTED IN THE PICTURE: (A) ZC-22: MDA-MB-231 IC50 (μM): 3.608; SUM-159 IC50 (μM): 0.435; OVCAR5 IC50 (μM): 0.758; SKOV3 IC50 (μM): 0.542 | (A) LY2835219: MDA-MB-231 IC50 (μM): 11.28; SUM-159 IC50 (μM): 0.664; OVCAR5 IC50 (μM): 9.791; SKOV3 IC50 (μM): 1.158 | (A) Olaparib: MDA-MB-231 IC50 (μM): 32.13; SUM-159 IC50 (μM): 19.29; OVCAR5 IC50 (μM): 30.51; SKOV3 IC50 (μM): >50

The subject of a further experiment is SKOV3 cells. Kind of experiment: Cell viability assay (CCK-8), IC50. The experiment is classed as cell-based. The conditions noted are these: Homo sapiens, SK-OV-3, 6 days, medium replenished every 2 days. As to the method:
as §1, §2, §3, §4

The next experiment concerns OVCAR5 cells. Kind of experiment: Cell viability assay (CCK-8), IC50. The experiment is classed as cell-based. The conditions noted are these: Homo sapiens, OVCAR-5, 6 days, medium replenished every 2 days. The method, then: as §1, §2, §3, §4
The subject of a further experiment is MDA-MB-231 cells. The experiment in a line: Cell viability assay (CCK-8), IC50. Type of experiment: cell-based. The conditions noted are these: Homo sapiens, 6 days, medium replenished every 2 days. The method, then:
as §1, §2, §3, §4

For experiment [1], the system named is MDA-MB-231 xenograft tumors. Kind of experiment: Breast cancer xenograft mouse model, tumor growth. The conditions noted are these: 1.5 mg/kg cisplatin or 50 mg/kg ZC-22 ip alone or together. Type of experiment: in vivo, mice. The method, then: Six-week-old female athymic nude mice (Homozygous) were purchase from Vital River Laboratories (Beijing, China) and maintained under the guidelines for laboratory animals of Nankai university (NKU). Mice were injected subcutaneously with 2 × 10^6 MDA-MB-231 or 8 × 10^6 OVCAR5 cells. When tumors were 50–100 mm^3 in size, the mice were randomly grouped and treated intraperitoneal (i.p.) with 50 mg/kg of Olaparib, 50 mg/kg of LY2835219, 50 mg/kg of ZC-22, or 1.5 mg/kg of cisplatin alone or in combinations or with the vehicle (PBS containing 10% DMSO and 10% 2-hydroxy-propyl-β-cyclodextrin) every 2 days. Tumor volume was measured every 3–4 days, which was calculated as Length × Width^2/2. At the end of the study, tumor and major organ tissues were harvested by surgery. For histopathological analysis, tissue samples were washed with PBS, fixed in 4% paraformaldehyde (PFA), paraffin-embedded, and sectioned into 7 μm thickness. For Western blot analysis, the tissue samples were dissociated by a tissue-tearor in RIPA buffer containing 1×protease and phosphatase inhibitors.
Figure 4 ZC-22 suppresses growth of breast cancer xenografts. Female NOD-SCID mice were injected subcutaneously with 2 × 10^6 of MDA-MB-231 cells and treated ip daily with 50 mg/kg of Olaparib (OLA) or LY2835219 (LY-2) alone or together (OLA + LY-2) or with ZC-22 alone starting on day 10 after injection of cells when tumors were 50–80 mm^3 in size. Tumor volumes were measured every 2–3 days. […] (B,C) Pictures of (B) and quantification of the size of (C) the MDA-MB-231 xenograft tumors at the end points. […] (E) Quantification of Ki67 (Left) and γH2A.X (Right)-positive cells in immunohistochemical staining of the xenograft tumor tissues. […]
Figure 6 ZC-22 sensitizes breast cancer cells to cisplatin treatment in vivo. […] Tumor volumes were measured every 2–3 days. […] (B,C) Pictures (B) and quantification of the size (C) of the MDA-MB-231 xenograft tumors at the end points. […] (E) Quantification of Ki67 (left) and γH2A.X (right)-positive cells in immunohistochemical staining of the xenograft tumor tissues. […]

SMILES strings stand for the structures. A value given as a limit tells only on which side of the number the result lay.

Take `CC(=O)c1c(C)c2cnc(Nc3ccc(N4CCN(C(=O)c5cc(Cc6n[nH]c(=O)c7ccccc67)ccc5F)CC4)cn3)nc2n(C2CCCC2)c1=O` [GC-24]: the IC50 in the experiment with SUM-159 cells is 17.8 µM; in the experiment on SKOV3 cells it was > 50 µM; with OVCAR5 cells, 26.1 µM; in the experiment with MDA-MB-231 cells, 33.8 µM.

`CN(C)C(=O)c1cc2cnc(Nc3ccc(N4CCN(C(=O)c5cc(Cc6n[nH]c(=O)c7ccccc67)ccc5F)CC4)cn3)nc2n1C1CCCC1` [LP-1]: the IC50 is 7.78 µM in the experiment on SUM-159 cells, 10.2 µM in the experiment on SKOV3 cells, 10.1 µM in the experiment with OVCAR5 cells and > 50 µM in the experiment with MDA-MB-231 cells.

With `O=C(c1cc(Cc2n[nH]c(=O)c3ccccc23)ccc1F)N1CCN(C(=O)C2CC2)CC1` [Olaparib, reference compound], the IC50 with SUM-159 cells is 19.3 µM; in the experiment with SKOV3 cells, > 50 µM; in the experiment with OVCAR5 cells it was 30.5 µM; in the experiment with MDA-MB-231 cells, 32.1 µM.

In the case of `N.N.[Cl][Pt][Cl]` [cisplatin], the “growth of the xenograft tumors” value in experiment [1] was “effectively inhibit growth of the xenograft tumors”.
